In ChEMBL document CHEMBL1152079, “Synthesis and biological evaluation of novel 2-vinyl carbapenems. Remarkable DHP-1 stability of 1-substituted analogs” (1996):
In brackets after ≈: the same amount, converted by molar mass.

Legend:
Mus musculus [1] = species on record: Mus musculus; assay: Susceptibility relative to meropenem was measured against mouse DHP-1.
[2] = biological target: T1, Dipeptidase 1 (Sus scrofa) (UniProt P22412); assay: Susceptibility relative to imipenem was measured against Swine renal Dehydropeptidase-1
T1 sequence (whole entry): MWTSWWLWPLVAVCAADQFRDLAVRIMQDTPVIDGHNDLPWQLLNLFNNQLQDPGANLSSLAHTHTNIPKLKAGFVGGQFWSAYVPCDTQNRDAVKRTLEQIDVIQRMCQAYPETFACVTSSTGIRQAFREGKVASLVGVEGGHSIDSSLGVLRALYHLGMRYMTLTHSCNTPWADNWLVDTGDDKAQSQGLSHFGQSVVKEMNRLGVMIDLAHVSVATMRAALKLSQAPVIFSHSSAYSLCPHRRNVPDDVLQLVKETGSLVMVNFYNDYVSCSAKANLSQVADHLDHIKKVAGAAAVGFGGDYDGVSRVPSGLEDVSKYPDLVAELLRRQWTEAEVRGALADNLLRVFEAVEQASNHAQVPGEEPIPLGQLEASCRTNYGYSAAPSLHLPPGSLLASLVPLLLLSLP

Oryctolagus cuniculus = species on record: Oryctolagus cuniculus; assay: Susceptibility relative to meropenem was measured against rabbit DHP-1.
Cercopithecidae = assay: Susceptibility relative to meropenem was measured against monkey DHP-1.
Escherichia coli = assay: Compound was tested for its minimal inhibitory concentration against Escherichia coli NIHJ JC-2; format: functional
Mus musculus [3] = assay: Percent urinary recovery was measured in mice after subcutaneous administration at dose 20 mg/kg.; format: functional, organism-based; design: dose 20 mg/kg; conditions: Urine
Pseudomonas aeruginosa = assay: Compound was tested for its minimal inhibitory concentration against Pseudomonas aeruginosa 26; format: functional
Proteus vulgaris = assay: Compound was tested for its minimal inhibitory concentration against Proteus vulgaris IAM 1025; format: functional
Staphylococcus aureus [4] = assay: Compound was tested for its minimal inhibitory concentration against Staphylococcus aureus 209 JC-1; format: functional
Staphylococcus aureus [5] = assay: Compound was tested for its minimal inhibitory concentration against Staphylococcus aureus 3004 (Methicillin resistant S. aureus); format: functional
[6] = biological target: Dipeptidase 1 (Rattus norvegicus) (UniProt P31430); assay: Susceptibility relative to meropenem was measured against rat Dehydropeptidase-1
[7] = test system: Dipeptidase 1 (Canis lupus familiaris); assay: Susceptibility relative to meropenem was measured against dog Dehydropeptidase-1
[8] = biological target: Dipeptidase 1 (Homo sapiens) (UniProt P16444); assay: Susceptibility relative to meropenem was measured against human Dehydropeptidase-1
Sequence of Dipeptidase 1 (Homo sapiens) (P16444 whole entry, looked up): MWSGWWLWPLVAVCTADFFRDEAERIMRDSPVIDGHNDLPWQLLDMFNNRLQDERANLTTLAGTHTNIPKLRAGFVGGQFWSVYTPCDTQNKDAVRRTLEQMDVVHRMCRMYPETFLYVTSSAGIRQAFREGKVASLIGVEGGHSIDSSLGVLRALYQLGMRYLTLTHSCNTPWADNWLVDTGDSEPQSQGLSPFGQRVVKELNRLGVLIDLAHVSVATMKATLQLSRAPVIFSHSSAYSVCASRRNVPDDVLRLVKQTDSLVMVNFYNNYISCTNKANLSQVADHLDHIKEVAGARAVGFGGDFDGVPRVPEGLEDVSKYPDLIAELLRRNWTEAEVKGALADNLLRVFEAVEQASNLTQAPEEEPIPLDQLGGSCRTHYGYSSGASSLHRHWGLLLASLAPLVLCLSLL

Sequence of Dipeptidase 1 (Rattus norvegicus) (P31430 whole entry, looked up): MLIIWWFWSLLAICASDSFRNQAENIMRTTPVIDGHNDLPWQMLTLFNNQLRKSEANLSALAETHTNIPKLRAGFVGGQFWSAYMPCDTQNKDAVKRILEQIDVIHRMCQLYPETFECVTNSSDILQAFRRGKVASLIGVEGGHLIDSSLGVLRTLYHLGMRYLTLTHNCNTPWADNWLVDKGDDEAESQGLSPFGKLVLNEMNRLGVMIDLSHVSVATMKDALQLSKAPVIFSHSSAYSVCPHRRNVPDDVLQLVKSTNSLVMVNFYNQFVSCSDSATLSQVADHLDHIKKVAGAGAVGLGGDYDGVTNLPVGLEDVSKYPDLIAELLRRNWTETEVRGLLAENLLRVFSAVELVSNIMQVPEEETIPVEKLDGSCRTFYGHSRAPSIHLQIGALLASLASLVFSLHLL

`C/C(=C\[C@@H]1CCCN1)C1=C(C(=O)O)N2C(=O)[C@H]([C@@H](C)O)[C@H]2C1` gave a Susceptibility (Mus musculus [1]) of 0.45, a Susceptibility [2] of 0.036 and a Susceptibility (Oryctolagus cuniculus) of 0.015. For the same compound, the Susceptibility (Cercopithecidae) was 0.032, the MIC (Escherichia coli) was 0.39 µg/mL (≈ 1.27 µM) and the Recovery (Mus musculus [3]) was 67.8%. For the same compound, the MIC (Pseudomonas aeruginosa) was 3.13 µg/mL (≈ 10.2 µM), the MIC (Proteus vulgaris) was 1.56 µg/mL (≈ 5.09 µM) and the MIC (Staphylococcus aureus [4]) was < 0.025 µg/mL. For the same compound, the MIC (Staphylococcus aureus [5]) was 50 µg/mL (≈ 163 µM), the Susceptibility [6] was 0.11 and the Susceptibility [7] was 0.249. For the same compound, the Susceptibility [8] was 0.45.
With `C[C@@H](O)[C@H]1C(=O)N2C(C(=O)O)=C(/C=C/[C@@H]3CCCN3)C[C@H]12` the Susceptibility [2] was 0.22, the MIC (Escherichia coli) was 1.56 µg/mL (≈ 5.34 µM) and the Recovery (Mus musculus [3]) was 20.2%. For the same compound, the MIC (Pseudomonas aeruginosa) was 3.13 µg/mL (≈ 10.7 µM), the MIC (Proteus vulgaris) was 1.56 µg/mL (≈ 5.34 µM) and the MIC (Staphylococcus aureus [4]) was 0.1 µg/mL (≈ 0.342 µM). For the same compound, the MIC (Staphylococcus aureus [5]) was > 100 µg/mL.
With `CSC/C(=C\[C@@H]1CCCN1)C1=C(C(=O)O)N2C(=O)[C@H]([C@@H](C)O)[C@H]2C1` the Susceptibility [2] was < 0.006, the MIC (Escherichia coli) was 0.78 µg/mL (≈ 2.21 µM) and the Recovery (Mus musculus [3]) was 54.3%. For the same compound, the MIC (Pseudomonas aeruginosa) was 25 µg/mL (≈ 70.9 µM), the MIC (Proteus vulgaris) was 3.13 µg/mL (≈ 8.88 µM) and the MIC (Staphylococcus aureus [4]) was 0.1 µg/mL (≈ 0.284 µM). The MIC (Staphylococcus aureus [5]) was 100 µg/mL (≈ 284 µM).
In the case of `C[C@@H](O)[C@H]1C(=O)N2C(C(=O)O)=C(/C(=C/[C@@H]3CCCN3)CN)C[C@H]12`, the Susceptibility [2] was 0.004, the MIC (Escherichia coli) was 100 µg/mL (≈ 311 µM) and the Recovery (Mus musculus [3]) was 52.1%. The MIC (Pseudomonas aeruginosa) was > 100 µg/mL, the MIC (Proteus vulgaris) was > 100 µg/mL and the MIC (Staphylococcus aureus [4]) was 0.78 µg/mL (≈ 2.43 µM). For the same compound, the MIC (Staphylococcus aureus [5]) was > 100 µg/mL.
In the case of `COC/C(=C\[C@@H]1CCCN1)C1=C(C(=O)O)N2C(=O)[C@H]([C@@H](C)O)[C@H]2C1`, the Susceptibility [2] was < 0.008, the MIC (Escherichia coli) was 0.78 µg/mL (≈ 2.32 µM) and the Recovery (Mus musculus [3]) was 64.4%. For the same compound, the MIC (Pseudomonas aeruginosa) was 25 µg/mL (≈ 74.3 µM), the MIC (Proteus vulgaris) was 50 µg/mL (≈ 149 µM) and the MIC (Staphylococcus aureus [4]) was 0.2 µg/mL (≈ 0.595 µM). For the same compound, the MIC (Staphylococcus aureus [5]) was > 100 µg/mL.
`C[C@@H](O)[C@H]1C(=O)N2C(C(=O)O)=C(SCCNC=N)C[C@H]12.O` [IMIPENEM] was tested, and the Susceptibility [2] was 1, the MIC (Escherichia coli) was 0.78 µg/mL and the Recovery (Mus musculus [3]) was 28.9%. The MIC (Pseudomonas aeruginosa) was 0.78 µg/mL, the MIC (Proteus vulgaris) was 3.13 µg/mL and the MIC (Staphylococcus aureus [4]) was < 0.025 µg/mL. It also gave an MIC (Staphylococcus aureus [5]) of 100 µg/mL.
`C[C@@H](O)[C@H]1C(=O)N2C(C(=O)O)=C(/C=C/[C@@H]3CCCN3)[C@H](C)[C@H]12` gave a Susceptibility [2] of 0.043, an MIC (Escherichia coli) of 0.78 µg/mL (≈ 2.55 µM) and a Recovery (Mus musculus [3]) of 60.7%. For the same compound, the MIC (Pseudomonas aeruginosa) was 3.13 µg/mL (≈ 10.2 µM), the MIC (Proteus vulgaris) was 6.25 µg/mL (≈ 20.4 µM) and the MIC (Staphylococcus aureus [4]) was < 0.025 µg/mL. It also gave an MIC (Staphylococcus aureus [5]) of 100 µg/mL (≈ 326 µM).
